Test: recombinant barcode read abundance after kanamycin selection (control-corrected) (log10(CPM+1)); higher = more efficient recombination; sequences stand for … in AGTGCAGAGAAAATCGGCCAGTTTTCTCTGCCTGCAGTCCGCATGCCGT…AGATTTATGCAGCGGACTGCCTTTCTCCCAAAGTGATAAACCGGACAGTATCATGGACCGGTTTTCCCGGTAATCCGTATTTGCAAGGTTGGTTTCACT; site = the 11-nt target
Outline: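 Oligos holding a promoter, target, barcode and the J23119-driven first 104 bases of the bridge RNA were Gibson-cloned into a vector that supplied the other 73 bp plus a T7-inducible recombinase. This library was co-electroporated with a donor plasmid into E. coli. Two replicates went on chloramphenicol/ampicillin LB agar (control) and two on chloramphenicol/ampicillin/kanamycin with 0.1 mM IPTG. Recombination efficiency is read from averaged, control-corrected barcode counts per million at recombinant junctions, reported as log10(CPM+1).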
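Also: IS621 recombinase and bridge RNA in Escherichia coli cells.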

| Sequence | recombinant barcode read abundance (log10) |
| --- | --- |
| TGTCTGGCTTGGGTTCTAACCTGTTGCCT (site TGTCTGGCTAG) | 0.0185 |
| TGTCTGTCTTGGGTTCTAACCTGTTGCTA (site TGTCTGTCTAA) | 0.0174 |
| TGTCTGTCTTGGGTTCTAACCTGTTGCTA (site TGTCTGTCTTA) | 0.0943 |
| TGTGAGTCTTGGGTTCTAACCTGTTGCGT (site TGTGAGTCTAA) | 0.347 |
| TGTGAGTCTTGGGTTCTAACCTGTTGCGT (site TGTGAGTCTAC) | 2.55 |
| TGTGAGTCTTGGGTTCTAACCTGTTGCGT (site TGTGAGTCTAG) | 0.27 |
| TGTGAGTCTTGGGTTCTAACCTGTTGCGT (site TGTGAGTCTAT) | 1.42 |
| TGTGCGGCTTGGGTTCTAACCTGTTGCCT (site AGTGCGGCTAG) | 0.0331 |
| TGTGCGGCTTGGGTTCTAACCTGTTGCCT (site CGTGCGGCTAG) | 0.00936 |
| TGTGCGGCTTGGGTTCTAACCTGTTGCCT (site GGTGCGGCTAG) | 0.535 |
| TGTGCGGCTTGGGTTCTAACCTGTTGCCT (site TGTGCGGCTAG) | 0.152 |
| TGTTCCTCTTGGGTTCTAACCTGTTGCCT (site TGTACCTCTAG) | 0.143 |
| TGTTCCTCTTGGGTTCTAACCTGTTGCCT (site TGTCCCTCTAG) | 0.142 |
| TGTTCCTCTTGGGTTCTAACCTGTTGCCT (site TGTGCCTCTAG) | 0.114 |
| TGTTCCTCTTGGGTTCTAACCTGTTGCCT (site TGTTCCTCTAG) | 0.106 |
| TGTTCTACTTGGGTTCTAACCTGTTGCCG (site TGCTCTACTCA) | 0.052 |
| TGTTCTACTTGGGTTCTAACCTGTTGCCG (site TGTTCTACTCG) | 0.0964 |
| TGTTCTCCTTGGGTTCTAACCTGTTGCCT (site AGTTCTCCTAG) | 0.0134 |

| Sequence | recombinant barcode read abundance (log10) |
| --- | --- |
| TGTTCTCCTTGGGTTCTAACCTGTTGCCT (site CGTTCTCCTAG) | 0.0608 |
| TGTTCTCCTTGGGTTCTAACCTGTTGCCT (site GGTTCTCCTAG) | 0.064 |
| TGTTCTCCTTGGGTTCTAACCTGTTGCCT (site TGTTCTCCTAG) | 0 |
| TGTTGACCTTGGGTTCTAACCTGTTGCAT (site TGTAGATCTAT) | 0.0346 |
| TGTTGACCTTGGGTTCTAACCTGTTGCAT (site TGTTGACCTAT) | 0.329 |
| TTACATGCTTGGGTTCTAACCTGTTGCCT (site AAGATCACTCC) | 0.281 |
| TTACATGCTTGGGTTCTAACCTGTTGCCT (site TTACATGCTAG) | 1.27 |
| TTAGAGGCTTGGGTTCTAACCTGTTGCCT (site TTAGAGACTAG) | 0.363 |
| TTAGAGGCTTGGGTTCTAACCTGTTGCCT (site TTAGAGCCTAG) | 0 |
| TTAGAGGCTTGGGTTCTAACCTGTTGCCT (site TTAGAGGCTAG) | 1.13 |
| TTAGAGGCTTGGGTTCTAACCTGTTGCCT (site TTAGAGTCTAG) | 0.0154 |
| TTAGCATCTTGGGTTCTAACCTGTTGCCT (site TTAGCATCTAG) | 0.589 |
| TTAGCATCTTGGGTTCTAACCTGTTGCCT (site TTAGCCTCTAG) | 0.412 |
| TTAGCATCTTGGGTTCTAACCTGTTGCCT (site TTAGCGTCTAG) | 0.161 |
| TTAGCATCTTGGGTTCTAACCTGTTGCCT (site TTAGCTTCTAG) | 0.0531 |
| TTAGGGTCTTGGGTTCTAACCTGTTGCCT (site TTAGGGACTAG) | 0.252 |
| TTAGGGTCTTGGGTTCTAACCTGTTGCCT (site TTAGGGCCTAG) | 1.17 |
| TTAGGGTCTTGGGTTCTAACCTGTTGCCT (site TTAGGGGCTAG) | 0.0984 |
